Legend:
[1] = molecular target: T1, ERα LBD (Homo sapiens, UniProt P03372); assay: Biolayer interferometry (BLI) direct binding assay; details: biotinylated ERα LBD on streptavidin sensor, 3–100 μM
T1 construct: ERα LBD (amino acids 302–552) was cloned into the pAN4 AviTag™ Vector; made in house
T1 sequence (P03372 302-552): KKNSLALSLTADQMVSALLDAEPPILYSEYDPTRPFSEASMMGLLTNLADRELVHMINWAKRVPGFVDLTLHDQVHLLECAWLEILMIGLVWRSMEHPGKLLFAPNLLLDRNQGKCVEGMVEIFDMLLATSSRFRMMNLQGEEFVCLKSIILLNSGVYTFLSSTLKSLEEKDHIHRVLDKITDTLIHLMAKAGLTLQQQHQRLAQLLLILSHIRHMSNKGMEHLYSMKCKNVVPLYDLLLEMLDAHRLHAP
Experimental: The direct binding of small molecules to the ERα-LBD was quantified by BLI using an Octet RED apparatus (Pall ForteBio, Menlo Park, CA, USA). ERα LBD (amino acids 302–552) was cloned into the pAN4 AviTag™ Vector, (Avidity, Aurora, CO, USA). Biotinylated ERα-LBD was purified as described previously. Biotinylated protein (bERα LBD at 0.05 mg/mL) was bound to the super streptavidin sensors (Pall ForteBio) overnight at 4 °C in assay buffer (20 mM Tris, pH 7.5, 500 mM NaCl, 0.2 mM tris(2-carboxyethyl)phosphine TCEP, 0.02 mM E2, 5% glycerol and 5% dimethyl sulfoxide (DMSO). The compounds were dissolved in the assay buffer in a two-fold dilution series ranging from 3.1–100 μM. In all experiments, a known AF2-interacting peptide, PGC-1α (Elim Biopharmaceuticals, Hayward, CA, USA) was used as a control to confirm the functionality of the bERα LBD.

[2] = molecular target: T2, ERα-LBD and SRC-3 (Homo sapiens, UniProt P03372); assay: Mammalian two-hybrid assay in MDA-MB-231 cells; format: cell-based; details: 1 nM E2, 24 h, read-out: IC50 for interaction between ERα-LBD and SRC-3 fusion proteins
T2 construct: generated by cloning the LBD of ERα into the pACT vector; expressed in transfected cells; host or cells: MDA-MB-231
T2 sequence (P03372 311-547 limits assumed): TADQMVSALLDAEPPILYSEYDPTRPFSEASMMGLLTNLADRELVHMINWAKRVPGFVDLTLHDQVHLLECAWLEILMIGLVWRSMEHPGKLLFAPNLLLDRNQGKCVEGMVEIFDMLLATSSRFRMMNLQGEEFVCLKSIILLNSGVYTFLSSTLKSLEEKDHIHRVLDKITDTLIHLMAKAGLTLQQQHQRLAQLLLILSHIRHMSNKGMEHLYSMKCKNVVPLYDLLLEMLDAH
Experimental: The direct effect of VPC-16606 on ERα-co-activator recruitment was assessed by the mammalian two-hybrid system (Promega, Madison, WI, USA). MDA-MB-231 cells were transfected with pACT-ERα-LBD, pBIND-Steroid receptor coactivator protein-3 (pBIND-SRC-3), a luciferase reporter plasmid containing a GAL4 recognition sequence and a constitutively-active Renilla reporter plasmid. The cells were treated with a […] dilution of VPC-16606 starting at 50 µM.
For the mammalian two hybrid assay, the CheckMate^TM Mammalian Two-Hybrid System (Promega, Madison, WI, USA) was used. The pACT-ERα-LBD construct was generated by cloning the LBD of ERα into the pACT vector to produce the ERα-LBD protein fused to the VP16 activation domain. The SRC-3 coactivator peptide (aa 614–698) containing LXXLL (L, leucine; X, any amino acid) motifs 1 and 2 was cloned into the pBIND vector to generate the pBIND-SRC-3 construct expressing the SRC-3 protein fused to the GAL4-DNA binding domain. Full-length human ERα (hERαWT) was encoded on a pcDNA3.1 expression plasmid. Point mutations in the LBD were generated with the QuikChange mutagenesis kit (Stratagene, San Diego, CA, USA) using the hERαWT template. […]
MDA-MB-231 cells were seeded on 96-well plates (2 × 10^4 cells/well) in 150 µL of medium. […] After 24 h, the cells were lysed and luminescence was measured as for the luciferase transcriptional assay described above.

[3] = system: ERα binding to the pS2 enhancer; assay: Chromatin immunoprecipitation (ChIP) in MCF7 cells; format: cell-based, human; details: MCF7, 6 μM, 24 h, 1 nM E2, compared to E2 alone
Experimental: To test this hypothesis, we performed chromatin immunoprecipitation (ChIP) assays in MCF7 cells. The cells were treated for 24 h with vehicle and E2 either alone or in combination with VPC-16606.
E2-deprived MCF7 cells (1 × 10^7 cells per 10 cm plate) were treated for 24 h with DMSO alone, DMSO + E2 or compound + E2. One percent formaldehyde was added for 10 min at room temperature to perform DNA-protein crosslinking and quenched by treatment with 125 mM glycine for 5 min. Cell lysates sonicated with Sonic Dismembrator 550 instrument (Thermo Fisher Scientific, Waltham, MA, USA) to yield DNA fragments of 200–1000 bp in size. Lysates (from 3.3 × 10^6 cells) were immunoprecipitated with […] of anti-ERα antibody or […] of rabbit isotype control IgG (Santa Cruz Biotechnology, Dallas, TX, USA) using the EZ-ChIP chromatin immunoprecipitation kit (Millipore, Billerica, MA, USA). Bound DNA was quantified by qPCR (SYBR Green master mix, Invitrogen, Carlsbad, CA, USA) using the following primer sets: pS2 enhancer, forward 5′-[…]-3′ and reverse 5′-AGGGCGTGACACCAGGAAA-3′; GAPDH promoter, forward 5′-[…]-3′ and reverse 5′-TCGAACAGGAGCAGA GAGCGA-3′. The qPCR results are presented as fold enrichment of PCR amplification over control IgG antibody and normalized based on the total input (no precipitated chromatin). Primers for the GAPDH promoter were used as a negative control.

## CC(=O)N(/N=C1\Sc2c(C)cccc2C1=O)c1ccccc1Cl [VPC-16606]
[1]
  Direct binding to ERα LBD (BLI): direct reversible interaction
[2]
  IC50: 800 nM
[3]
  ERα pull down of the promoter of pS2 (ChIP): significantly reduced
